Test results from ChEMBL document CHEMBL4765475, “Tuning the Biological Activity of RGD Peptides with Halotryptophans†” (J Med Chem, 2021).
Active and inactive are the calls of the source. The rule behind the calls is not given here.

Legend:
[1] = Selectivity index, ratio of IC50 for binding affinity to human integrin alpha5beta1 to IC50 for binding affinity to human integrin alphaVbeta3
Integrin alpha-5/beta-1 = Integrin alpha-5/beta-1 (Homo sapiens, UniProt P05556+P08648); test: Binding affinity to human integrin alpha5beta1 incubated for 1 hr by ELISA based solid phase integrin binding assay; type: protein-complex assay
Integrin alpha-V/beta-6 = Integrin alpha-V/beta-6 (Homo sapiens, UniProt P06756+P18564); test: Binding affinity to human integrin alphaVbeta6 incubated for 1 hr by ELISA based solid phase integrin binding assay; type: protein-complex assay
Integrin alpha-V/beta-6, sequence (P06756 31-889 limits assumed): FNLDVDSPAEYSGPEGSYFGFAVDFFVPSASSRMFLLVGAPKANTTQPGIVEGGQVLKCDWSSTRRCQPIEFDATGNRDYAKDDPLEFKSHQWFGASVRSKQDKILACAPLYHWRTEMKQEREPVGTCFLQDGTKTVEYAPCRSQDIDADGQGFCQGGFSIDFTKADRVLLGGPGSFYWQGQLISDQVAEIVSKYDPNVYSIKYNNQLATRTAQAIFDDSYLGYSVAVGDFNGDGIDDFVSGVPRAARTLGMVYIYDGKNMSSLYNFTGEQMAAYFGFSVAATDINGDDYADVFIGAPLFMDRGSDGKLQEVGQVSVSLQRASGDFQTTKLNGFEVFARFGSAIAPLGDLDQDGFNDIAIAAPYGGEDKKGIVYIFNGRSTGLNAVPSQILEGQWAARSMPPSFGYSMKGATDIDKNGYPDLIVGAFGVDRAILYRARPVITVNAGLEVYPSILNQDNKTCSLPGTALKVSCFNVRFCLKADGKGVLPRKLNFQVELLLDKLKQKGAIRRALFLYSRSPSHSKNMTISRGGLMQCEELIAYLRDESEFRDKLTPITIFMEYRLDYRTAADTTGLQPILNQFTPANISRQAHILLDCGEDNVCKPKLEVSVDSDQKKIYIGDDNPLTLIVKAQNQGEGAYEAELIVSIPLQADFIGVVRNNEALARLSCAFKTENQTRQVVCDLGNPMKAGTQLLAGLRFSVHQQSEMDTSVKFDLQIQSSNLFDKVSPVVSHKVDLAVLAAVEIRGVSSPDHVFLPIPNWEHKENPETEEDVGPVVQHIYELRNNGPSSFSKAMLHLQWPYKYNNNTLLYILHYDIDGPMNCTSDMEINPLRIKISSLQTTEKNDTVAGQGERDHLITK
Integrin alpha-V/beta-6, sequence (P06756 891-1048 limits assumed): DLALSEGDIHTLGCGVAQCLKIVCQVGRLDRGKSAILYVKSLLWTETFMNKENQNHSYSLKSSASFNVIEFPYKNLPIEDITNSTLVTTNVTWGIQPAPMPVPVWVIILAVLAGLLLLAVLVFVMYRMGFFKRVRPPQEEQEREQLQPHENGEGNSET
Integrin alpha-V/beta-6, sequence (P18564 22-788 limits assumed): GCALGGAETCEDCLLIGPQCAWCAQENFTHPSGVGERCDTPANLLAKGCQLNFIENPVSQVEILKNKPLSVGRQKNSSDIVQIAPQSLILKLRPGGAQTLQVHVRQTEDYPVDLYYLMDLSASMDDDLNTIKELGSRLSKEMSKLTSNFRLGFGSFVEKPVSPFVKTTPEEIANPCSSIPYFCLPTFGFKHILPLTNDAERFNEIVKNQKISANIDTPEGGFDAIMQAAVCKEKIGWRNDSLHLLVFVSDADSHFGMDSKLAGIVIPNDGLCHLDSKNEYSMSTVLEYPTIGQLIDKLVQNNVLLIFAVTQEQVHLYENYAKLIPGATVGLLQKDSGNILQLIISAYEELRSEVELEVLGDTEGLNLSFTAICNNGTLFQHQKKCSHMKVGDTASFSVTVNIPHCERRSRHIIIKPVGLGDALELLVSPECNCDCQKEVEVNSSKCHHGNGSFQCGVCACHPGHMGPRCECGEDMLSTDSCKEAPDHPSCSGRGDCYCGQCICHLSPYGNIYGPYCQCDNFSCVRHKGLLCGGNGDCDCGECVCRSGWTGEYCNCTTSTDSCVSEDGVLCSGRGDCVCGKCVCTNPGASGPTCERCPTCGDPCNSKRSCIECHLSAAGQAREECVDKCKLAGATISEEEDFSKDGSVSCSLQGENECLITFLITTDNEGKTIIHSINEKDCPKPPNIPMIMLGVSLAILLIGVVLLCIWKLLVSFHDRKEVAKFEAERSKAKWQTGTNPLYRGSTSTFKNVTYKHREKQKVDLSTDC

[2] = target: Integrin alpha-IIb/beta-3 (Homo sapiens, UniProt P05106+P08514); test: Binding affinity to human integrin alpha2bbeta3 incubated for 1 hr by ELISA based solid phase integrin binding assay; type: protein complex
Integrin alpha-IIb/beta-3, sequence (P05106 27-788 limits assumed): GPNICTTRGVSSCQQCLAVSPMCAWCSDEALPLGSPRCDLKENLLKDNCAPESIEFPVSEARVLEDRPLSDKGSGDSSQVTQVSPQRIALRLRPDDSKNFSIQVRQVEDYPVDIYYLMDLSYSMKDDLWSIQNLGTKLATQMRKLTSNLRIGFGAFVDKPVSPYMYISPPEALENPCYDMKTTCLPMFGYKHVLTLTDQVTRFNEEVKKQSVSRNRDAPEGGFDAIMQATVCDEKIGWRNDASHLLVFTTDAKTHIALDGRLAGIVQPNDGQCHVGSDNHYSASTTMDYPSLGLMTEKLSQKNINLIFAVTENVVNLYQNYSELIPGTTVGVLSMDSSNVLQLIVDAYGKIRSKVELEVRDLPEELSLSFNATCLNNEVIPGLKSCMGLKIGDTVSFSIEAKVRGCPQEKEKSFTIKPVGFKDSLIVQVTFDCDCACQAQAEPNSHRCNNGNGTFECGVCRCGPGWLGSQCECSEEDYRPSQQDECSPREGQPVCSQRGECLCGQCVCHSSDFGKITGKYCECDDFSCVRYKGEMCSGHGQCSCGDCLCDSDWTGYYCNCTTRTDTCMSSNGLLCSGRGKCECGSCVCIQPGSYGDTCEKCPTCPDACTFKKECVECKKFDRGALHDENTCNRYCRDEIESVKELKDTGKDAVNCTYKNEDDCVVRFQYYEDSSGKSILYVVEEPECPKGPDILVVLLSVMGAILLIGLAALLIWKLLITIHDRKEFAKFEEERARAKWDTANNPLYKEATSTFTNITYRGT
Integrin alpha-IIb/beta-3, sequence (P08514 32-887 limits assumed): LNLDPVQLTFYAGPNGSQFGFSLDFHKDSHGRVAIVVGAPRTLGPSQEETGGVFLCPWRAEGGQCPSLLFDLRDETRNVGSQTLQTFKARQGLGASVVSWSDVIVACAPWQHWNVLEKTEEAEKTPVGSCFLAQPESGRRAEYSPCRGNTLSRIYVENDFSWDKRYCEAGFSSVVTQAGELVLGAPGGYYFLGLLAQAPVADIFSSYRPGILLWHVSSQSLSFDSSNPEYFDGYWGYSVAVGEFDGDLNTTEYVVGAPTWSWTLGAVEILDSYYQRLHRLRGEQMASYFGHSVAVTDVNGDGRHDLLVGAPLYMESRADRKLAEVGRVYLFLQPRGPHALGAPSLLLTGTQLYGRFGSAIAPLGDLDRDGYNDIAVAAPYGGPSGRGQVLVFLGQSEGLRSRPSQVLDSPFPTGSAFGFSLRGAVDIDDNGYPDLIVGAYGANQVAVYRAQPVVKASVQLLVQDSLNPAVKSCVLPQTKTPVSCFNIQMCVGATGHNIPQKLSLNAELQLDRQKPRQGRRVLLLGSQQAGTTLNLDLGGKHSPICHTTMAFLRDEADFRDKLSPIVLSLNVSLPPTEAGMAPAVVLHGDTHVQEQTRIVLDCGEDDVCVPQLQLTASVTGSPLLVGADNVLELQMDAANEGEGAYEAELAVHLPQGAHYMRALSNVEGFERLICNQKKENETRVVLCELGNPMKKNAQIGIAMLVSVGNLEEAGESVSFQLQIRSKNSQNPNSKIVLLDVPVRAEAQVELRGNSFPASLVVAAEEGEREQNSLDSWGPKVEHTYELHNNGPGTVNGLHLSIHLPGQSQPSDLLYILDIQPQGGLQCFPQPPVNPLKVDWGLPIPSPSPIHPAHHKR
Integrin alpha-IIb/beta-3, sequence (P08514 891-1039 limits assumed): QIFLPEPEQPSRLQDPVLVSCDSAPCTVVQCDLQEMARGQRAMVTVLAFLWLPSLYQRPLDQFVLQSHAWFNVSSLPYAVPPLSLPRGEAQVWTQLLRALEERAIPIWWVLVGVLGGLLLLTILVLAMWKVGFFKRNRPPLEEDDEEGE

Integrin alpha-V/beta-3 [3] = target: T1, Integrin alpha-V/beta-3 (Homo sapiens, UniProt P05106+P06756); test: Binding affinity to human integrin alphaVbeta3 incubated for 1 hr by ELISA based solid phase integrin binding assay; type: protein-complex assay
Target sequence in this assay (P05106 27-788 limits assumed): as the sequence (P05106 27-788 limits assumed) above
Target sequence in this assay (P06756 31-889 limits assumed): as the sequence (P06756 31-889 limits assumed) above
Target sequence in this assay (P06756 891-1048 limits assumed): as the sequence (P06756 891-1048 limits assumed) above

Integrin alpha-V/beta-8 = Integrin alpha-V/beta-8 (Homo sapiens, UniProt P06756+P26012); test: Binding affinity to human integrin alphaVbeta8 incubated for 1 hr by ELISA based solid phase integrin binding assay; type: protein-complex assay
Integrin alpha-V/beta-8, sequence (P06756 31-889 limits assumed): as the sequence (P06756 31-889 limits assumed) above
Integrin alpha-V/beta-8, sequence (P06756 891-1048 limits assumed): as the sequence (P06756 891-1048 limits assumed) above
Integrin alpha-V/beta-8, sequence (P26012 43-769 limits assumed): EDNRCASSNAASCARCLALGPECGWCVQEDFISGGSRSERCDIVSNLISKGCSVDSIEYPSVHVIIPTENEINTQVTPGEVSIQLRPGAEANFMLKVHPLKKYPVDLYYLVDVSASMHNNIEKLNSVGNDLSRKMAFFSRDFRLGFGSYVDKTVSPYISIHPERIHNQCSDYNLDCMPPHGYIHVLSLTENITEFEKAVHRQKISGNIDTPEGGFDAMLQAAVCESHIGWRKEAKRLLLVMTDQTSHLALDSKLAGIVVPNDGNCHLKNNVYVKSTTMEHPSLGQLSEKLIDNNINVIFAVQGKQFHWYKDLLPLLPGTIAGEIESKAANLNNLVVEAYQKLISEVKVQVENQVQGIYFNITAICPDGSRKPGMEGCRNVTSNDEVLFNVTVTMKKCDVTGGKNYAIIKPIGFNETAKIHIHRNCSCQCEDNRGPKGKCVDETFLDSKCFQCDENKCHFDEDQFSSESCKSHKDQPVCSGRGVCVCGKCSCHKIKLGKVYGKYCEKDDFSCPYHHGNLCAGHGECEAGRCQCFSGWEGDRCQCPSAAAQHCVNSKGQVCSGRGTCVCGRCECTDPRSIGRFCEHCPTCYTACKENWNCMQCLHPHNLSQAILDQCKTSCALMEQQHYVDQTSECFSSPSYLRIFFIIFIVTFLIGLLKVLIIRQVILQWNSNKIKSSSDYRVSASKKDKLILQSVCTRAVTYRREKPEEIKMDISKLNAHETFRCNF

KB = test: Cytotoxicity in human KB cells; type: functional, cell-based; settings: for IC50: Homo sapiens, KB
Integrin alpha-V/beta-3 [4] = target: T1, Integrin alpha-V/beta-3; test: Binding affinity to integrin alphaVbeta3 expressed in human M21 cells at 250 uM incubated for 30 mins by confocal microscopy; type: cell-based

SMILES	Ratio IC50 [1]	IC50 (Integrin alpha-5/beta-1) [nM]	IC50 (Integrin alpha-V/beta-3 [3]) [nM]	further results
COc1ccc(-c2cccc3c(C[C@H]4NC(=O)[C@H](CC(=O)O)NC(=O)CNC(=O)[C@H](CCCNC(=N)N)NC(=O)[C@H](C(C)C)NC4=O)c[nH]c23)cc1	89	66	0.74	IC50 (Integrin alpha-V/beta-6): 50 nM; IC50 [2]: > 10000 nM; IC50 (Integrin alpha-V/beta-8): 76.5 nM
CC(C)[C@@H]1C(=O)N[C@@H](CCCNC(=N)N)C(=O)NCC(=O)N[C@@H](CC(=O)O)C(=O)N[C@@H](Cc2c[nH]c3c(Br)cccc23)C(=O)N1C	–	> 10000	311	–
CC(C)[C@@H]1NC(=O)[C@@H](Cc2c[nH]c3c(-c4c5ccccc5cc5ccccc45)cccc23)NC(=O)[C@H](CC(=O)O)NC(=O)CNC(=O)[C@H](CCCNC(=N)N)NC1=O	798	471	0.59	IC50 (Integrin alpha-V/beta-6): 32 nM; IC50 [2]: > 10000 nM; IC50 (Integrin alpha-V/beta-8): 193 nM
CC(C)[C@@H]1NC(=O)[C@@H](Cc2c[nH]c3c(Cl)cccc23)NC(=O)[C@H](CC(=O)O)NC(=O)CNC(=O)[C@H](CCCNC(=N)N)NC1=O	269	91.3	0.34	–
O=[N+]([O-])/C=C1\NCCN1Cc1ccc(F)nc1	–	–	–	LC90 (KB): 0.32 ppm
CC(C)[C@@H]1NC(=O)[C@@H](Cc2c[nH]c3c(-c4ccc5ccc6cccc7ccc4c5c67)cccc23)NC(=O)[C@H](CC(=O)O)NC(=O)CNC(=O)[C@H](CCCNC(=N)N)NC1=O	407	–	–	IC50 (Integrin alpha-V/beta-6): 299 nM; IC50 [2]: > 10000 nM; Activity (Integrin alpha-V/beta-3 [4]): Active; IC50 (Integrin alpha-V/beta-8): 1010 nM
CC(C)[C@@H]1NC(=O)[C@@H](Cc2c[nH]c3ccccc23)NC(=O)[C@H](CC(=O)O)NC(=O)CNC(=O)[C@H](CCCNC(=N)N)NC1=O	8.6	9.9	1.15	–
O=[N+]([O-])/C=C1\NCCN1Cc1cccnc1	–	–	–	LC90 (KB): 8 ppm
CC(C)[C@@H]1NC(=O)[C@@H](Cc2c[nH]c3cc(Br)ccc23)NC(=O)[C@H](CC(=O)O)NC(=O)CNC(=O)[C@H](CCCNC(=N)N)NC1=O	82	43.3	0.53	–
CC(C)[C@H]1C(=O)N[C@@H](CCCNC(=N)N)C(=O)NCC(=O)N[C@@H](CC(=O)O)C(=O)N[C@H](Cc2c[nH]c3c(Br)cccc23)C(=O)N1C	7.4	10.2	1.37	–
CC(C)[C@@H]1NC(=O)[C@@H](Cc2c[nH]c3cc(Cl)ccc23)NC(=O)[C@H](CC(=O)O)NC(=O)CNC(=O)[C@H](CCCNC(=N)N)NC1=O	163	39.1	0.24	–
CC(C)[C@@H]1NC(=O)[C@@H](Cc2c[nH]c3c(Br)cccc23)NC(=O)[C@H](CC(=O)O)NC(=O)CNC(=O)[C@H](CCCNC(=N)N)NC1=O	120	74.3	0.62	–
CC(C)[C@@H]1NC(=O)[C@@H](Cc2c[nH]c3c(-c4ccc(C(=O)O)cc4)cccc23)NC(=O)[C@H](CC(=O)O)NC(=O)CNC(=O)[C@H](CCCNC(=N)N)NC1=O	42	22	0.52	IC50 (Integrin alpha-V/beta-6): 54 nM; IC50 [2]: > 10000 nM; IC50 (Integrin alpha-V/beta-8): 39.2 nM
CC(C)[C@H]1NC(=O)[C@H](Cc2c[nH]c3c(Br)cccc23)NC(=O)[C@H](CC(=O)O)NC(=O)CNC(=O)[C@H](CCCNC(=N)N)NC1=O	891	472	0.53	–
O=[N+]([O-])/C=C1\NCCN1Cc1ccc(Br)nc1	–	–	–	LC90 (KB): 1.6 ppm
COc1ccc(C[C@H]2NC(=O)/C=C/C[C@@H]([C@H](C)[C@@H]3O[C@H]3c3ccccc3)OC(=O)[C@H](CC(C)C)OC(=O)C(C)(C)CNC2=O)cc1Cl	–	–	–	IC50 (KB): 0.009 nM
CC(C)[C@@H]1NC(=O)[C@@H](Cc2c[nH]c3c(F)cccc23)NC(=O)[C@H](CC(=O)O)NC(=O)CNC(=O)[C@H](CCCNC(=N)N)NC1=O	167	58.3	0.35	–
CC(C)[C@@H]1NC(=O)[C@@H](Cc2c[nH]c3c(-c4cccc(N)c4)cccc23)NC(=O)[C@H](CC(=O)O)NC(=O)CNC(=O)[C@H](CCCNC(=N)N)NC1=O	1170	610	0.52	IC50 (Integrin alpha-V/beta-6): 36 nM; IC50 [2]: > 10000 nM; IC50 (Integrin alpha-V/beta-8): 220 nM
CC(C)[C@@H]1NC(=O)[C@@H](Cc2c[nH]c3c(I)cccc23)NC(=O)[C@H](CC(=O)O)NC(=O)CNC(=O)[C@H](CCCNC(=N)N)NC1=O	114	49.2	0.43	–
O=[N+]([O-])/C=C1\NCCN1Cc1ccc(Cl)nc1	–	–	–	LC90 (KB): 0.32 ppm
COc1ccc(C[C@H]2NC(=O)/C=C/C[C@@H]([C@H](C)[C@@H]3O[C@H]3c3ccccc3)OC(=O)[C@H](CC(C)C)OC(=O)C(C)(C)CNC2=O)cc1	–	–	–	IC50 (KB): 0.073 nM
